# Key:
# Format in all cases: biochemical
# PI3K-alpha = PI3K-alpha (Homo sapiens, UniProt P42336); test: PI3K-alpha fluorescence polarization assay; settings: read-out: PI3Kα Avg. IC50
# PI3K-gamma = PI3K-gamma (Homo sapiens, UniProt P48736); test: PI3K-gamma fluorescence polarization assay; settings: PI3Kγ Avg. IC50
# Summary of the method: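 FP competition read-out: PIP3 produced displaces BODIPY-TMR-IP4 (5 nM) from GST-GRP1 PH domain (100 nM). Kinase step: 5 ng enzyme, 2.5 μM diC8-PIP2, 25 μM ATP, pH 7 HEPES/MgCl2, 1 h, 25° C; EDTA stop.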
# human TOR = target: T1, human TOR (Homo sapiens, UniProt P42345); test: mTOR enzyme assay (DELFIA, His6-S6K substrate); settings: read-out: mTOR Kinase Avg. IC50
# T1 construct: FLAG
# Sequence of PI3K-gamma (P48736 whole entry, species assumed, the tested form may be a part): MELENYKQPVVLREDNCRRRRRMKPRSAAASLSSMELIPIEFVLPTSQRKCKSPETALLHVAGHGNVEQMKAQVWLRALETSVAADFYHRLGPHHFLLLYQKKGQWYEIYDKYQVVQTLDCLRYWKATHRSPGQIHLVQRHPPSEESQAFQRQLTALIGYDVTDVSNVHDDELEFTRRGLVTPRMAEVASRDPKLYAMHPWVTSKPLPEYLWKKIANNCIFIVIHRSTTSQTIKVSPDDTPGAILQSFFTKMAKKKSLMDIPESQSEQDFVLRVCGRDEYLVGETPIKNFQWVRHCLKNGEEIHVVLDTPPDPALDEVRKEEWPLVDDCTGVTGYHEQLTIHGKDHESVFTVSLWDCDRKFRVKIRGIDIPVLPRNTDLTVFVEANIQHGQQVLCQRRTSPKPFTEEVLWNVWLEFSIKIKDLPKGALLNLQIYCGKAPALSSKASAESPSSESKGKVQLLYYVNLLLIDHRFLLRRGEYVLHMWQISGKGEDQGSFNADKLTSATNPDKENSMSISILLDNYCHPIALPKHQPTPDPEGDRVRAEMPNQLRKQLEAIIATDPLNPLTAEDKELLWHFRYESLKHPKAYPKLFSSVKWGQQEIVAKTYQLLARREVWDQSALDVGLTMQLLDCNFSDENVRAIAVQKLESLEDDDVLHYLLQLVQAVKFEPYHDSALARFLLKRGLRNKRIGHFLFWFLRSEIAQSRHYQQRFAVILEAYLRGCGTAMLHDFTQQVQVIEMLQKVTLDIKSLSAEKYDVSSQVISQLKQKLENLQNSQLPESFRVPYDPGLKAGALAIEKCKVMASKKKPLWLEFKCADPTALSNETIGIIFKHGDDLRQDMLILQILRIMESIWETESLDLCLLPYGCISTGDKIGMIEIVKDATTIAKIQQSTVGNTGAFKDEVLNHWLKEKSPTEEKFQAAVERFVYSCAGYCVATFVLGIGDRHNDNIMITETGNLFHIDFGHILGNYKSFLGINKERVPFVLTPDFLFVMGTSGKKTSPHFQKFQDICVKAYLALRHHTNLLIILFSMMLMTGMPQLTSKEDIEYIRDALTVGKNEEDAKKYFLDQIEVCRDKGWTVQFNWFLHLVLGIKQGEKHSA
# Sequence of PI3K-alpha (P42336 whole entry, species assumed): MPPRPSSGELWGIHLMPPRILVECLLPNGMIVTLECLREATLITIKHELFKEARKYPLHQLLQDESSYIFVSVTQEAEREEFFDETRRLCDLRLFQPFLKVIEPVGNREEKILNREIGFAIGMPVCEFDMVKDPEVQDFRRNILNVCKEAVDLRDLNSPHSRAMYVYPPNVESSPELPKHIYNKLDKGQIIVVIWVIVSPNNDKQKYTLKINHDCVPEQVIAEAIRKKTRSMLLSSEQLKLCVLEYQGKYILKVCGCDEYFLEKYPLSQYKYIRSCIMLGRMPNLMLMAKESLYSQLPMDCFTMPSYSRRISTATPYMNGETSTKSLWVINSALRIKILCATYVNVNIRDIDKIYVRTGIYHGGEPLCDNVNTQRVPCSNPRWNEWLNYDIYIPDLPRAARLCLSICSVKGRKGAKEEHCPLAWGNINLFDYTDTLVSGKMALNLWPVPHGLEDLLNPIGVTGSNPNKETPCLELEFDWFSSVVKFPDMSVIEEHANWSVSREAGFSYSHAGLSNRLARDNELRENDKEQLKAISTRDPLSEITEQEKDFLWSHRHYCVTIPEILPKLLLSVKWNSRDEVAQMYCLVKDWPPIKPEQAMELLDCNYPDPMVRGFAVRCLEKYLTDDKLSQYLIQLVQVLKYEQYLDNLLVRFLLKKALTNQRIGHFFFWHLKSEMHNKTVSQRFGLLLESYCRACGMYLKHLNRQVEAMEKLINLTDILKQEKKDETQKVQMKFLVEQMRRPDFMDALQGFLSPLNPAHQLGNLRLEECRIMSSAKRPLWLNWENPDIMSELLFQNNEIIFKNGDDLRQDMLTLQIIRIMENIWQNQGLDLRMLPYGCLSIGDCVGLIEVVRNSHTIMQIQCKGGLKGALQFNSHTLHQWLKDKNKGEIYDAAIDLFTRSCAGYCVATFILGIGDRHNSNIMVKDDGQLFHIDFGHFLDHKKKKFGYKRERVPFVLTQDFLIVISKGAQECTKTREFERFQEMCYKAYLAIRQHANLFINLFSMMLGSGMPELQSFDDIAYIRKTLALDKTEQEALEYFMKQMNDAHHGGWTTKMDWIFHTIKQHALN
# Sequence of PI3K-alpha (P27986 whole entry partner, species assumed): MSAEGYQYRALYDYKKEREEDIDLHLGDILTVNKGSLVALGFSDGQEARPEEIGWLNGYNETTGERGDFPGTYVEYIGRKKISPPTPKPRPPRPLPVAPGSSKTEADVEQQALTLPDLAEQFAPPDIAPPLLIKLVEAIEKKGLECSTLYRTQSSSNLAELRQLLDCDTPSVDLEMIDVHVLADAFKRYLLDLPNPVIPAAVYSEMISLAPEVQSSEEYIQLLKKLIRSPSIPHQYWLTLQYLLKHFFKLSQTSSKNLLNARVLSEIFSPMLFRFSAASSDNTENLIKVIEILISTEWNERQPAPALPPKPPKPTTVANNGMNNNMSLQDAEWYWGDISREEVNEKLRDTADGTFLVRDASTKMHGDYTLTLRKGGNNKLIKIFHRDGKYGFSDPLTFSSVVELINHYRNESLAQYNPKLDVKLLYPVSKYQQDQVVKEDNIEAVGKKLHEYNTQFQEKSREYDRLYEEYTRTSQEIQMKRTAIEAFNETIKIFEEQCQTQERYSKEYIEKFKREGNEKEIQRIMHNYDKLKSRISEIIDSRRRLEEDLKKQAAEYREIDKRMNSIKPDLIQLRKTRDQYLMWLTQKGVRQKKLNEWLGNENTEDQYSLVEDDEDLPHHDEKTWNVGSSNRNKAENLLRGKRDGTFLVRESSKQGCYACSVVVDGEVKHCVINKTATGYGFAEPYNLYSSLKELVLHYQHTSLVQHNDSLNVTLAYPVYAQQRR
Structure (SMILES),IC50 (PI3K-alpha) [nM],IC50 (PI3K-gamma) [nM],IC50 (human TOR) [nM]
"Cn1cc(/C=C2\Oc3cc(O)cc(O)c3C2=O)c2c(-c3ccoc3)cccc21 [Example 378, (2Z)-2-{[4-(3-Furyl)-1-methyl-1H-indol-3-yl]methylene}-4,6-dihydroxy-1-benzofuran-3(2H)-one]",971,3400,107
"Cn1cc(/C=C2\Oc3cc(O)cc(O)c3C2=O)c2c(-c3ccc(O)cc3)cccc21 [Example 379, (2Z)-4,6-Dihydroxy-2-{[4-(4-hydroxyphenyl)-1-methyl-1H-indol-3-yl]methylene}-1-benzofuran-3(2H)-one]",562,1090,29
"Cn1cc(/C=C2\Oc3cc(O)cc(O)c3C2=O)c2c(-c3ccc(N)nc3)cccc21 [Example 380, (2Z)-2-{[4-(6-Aminopyridin-3-yl)-1-methyl-1H-indol-3-yl]methylene}-4,6-dihydroxy-1-benzofuran-3(2H)-one]",432,3260,89
"CC(C)Oc1ccc(-c2cccc3c2c(/C=C2\Oc4cc(O)cc(O)c4C2=O)cn3C)cc1 [Example 381, (2Z)-4,6-dihydroxy-2-{[4-(4-isopropoxyphenyl)-1-methyl-1H-indol-3-yl]methylene}-1-benzofuran-3(2H)-one]",2740,3950,180
"CCOC(=O)c1ccc(-c2cccc3c2c(/C=C2\Oc4cc(O)cc(O)c4C2=O)cn3C)cc1 [Example 382, Ethyl 4-{3-[(Z)-(4,6-Dihydroxy-3-oxo-1-benzofuran-2(3H)-ylidene)methyl]-1-methyl-1H-indol-4-yl}benzoate]",2920,4680,535
"CC(=O)Nc1ccc(-c2cccc3c2c(/C=C2\Oc4cc(O)cc(O)c4C2=O)cn3C)cc1 [Example 383, N-(4-{3-[(Z)-(4,6-Dihydroxy-3-oxo-1-benzofuran-2(3H)-ylidene)methyl]-1-methyl-1H-indol-4-yl}phenyl)acetamide]",750,2250,12.3
"COc1ccc2c(c1)O/C(=C\c1c[nH]c3ccc(OC)cc13)C2=O [Example 384, (2Z)-6-Methoxy-2-[(5-methoxy-1H-indol-3-yl)methylene]-1-benzofuran-3(2H)-one]",> 10000,2450,> 20000
"CN(C)c1ccc(-c2cccc3c2c(/C=C2\Oc4cc(O)cc(O)c4C2=O)cn3C)cc1 [Example 385, (2Z)-2-({4-[4-(Dimethylamino)phenyl]-1-methyl-1H-indol-3-yl}methylene)-4,6-dihydroxy-1-benzofuran-3(2H)-one]",2790,7630,18
"Cn1cc(/C=C2\Oc3cc(O)cc(O)c3C2=O)c2c(-c3ccc(N4CCOCC4)nc3)cccc21 [Example 386, (2Z)-4,6-Dihydroxy-2-{[1-methyl-4-(6-morpholin-4-ylpyridin-3-yl)-1H-indol-3-yl]methylene}-1-benzofuran-3(2H)-one]",1920,5780,69.5
"CN(C)CCCNC(=O)c1ccc(-c2cccc3c2c(/C=C2\Oc4cc(O)cc(O)c4C2=O)cn3C)cc1 [Example 387, 4-{3-[(Z)-(4,6-Dihydroxy-3-oxo-1-benzofuran-2(3H)-ylidene)methyl]-1-methyl-1H-indol-4-yl}-N-[3-(dimethylamino)propyl]benzamide]",3520,4590,340
"CC(=O)Nc1cccc(-c2cccc3c2c(/C=C2\Oc4cc(O)cc(O)c4C2=O)cn3C)c1 [Example 388, N-(3-{3-[(Z)-(4,6-Dihydroxy-3-oxo-1-benzofuran-2(3H)-ylidene)methyl]-1-methyl-1H-indol-4-yl}phenyl)acetamide]",1350,3280,200
"CNc1ccc(-c2cccc3c2c(/C=C2\Oc4cc(O)cc(O)c4C2=O)cn3C)cc1 [Example 389, (2Z)-4,6-Dihydroxy-2-({1-methyl-4-[4-(methylamino)phenyl]-1H-indol-3-yl}methylene)-1-benzofuran-3(2H)-one]",1870,9860,11.5
"Cn1cc(/C=C2\Oc3cc(O)cc(O)c3C2=O)c2c(-c3cccc(O)c3)cccc21 [Example 390, (2Z)-4,6-Dihydroxy-2-{[4-(3-hydroxyphenyl)-1-methyl-1H-indol-3-yl]methylene}-1-benzofuran-3(2H)-one]",1120,2040,90
"COC(=O)Nc1ccc(-c2cccc3c2c(/C=C2\Oc4cc(O)cc(O)c4C2=O)cn3C)cc1 [Example 391, Methyl (4-{3-[(Z)-(4,6-Dihydroxy-3-oxo-1-benzofuran-2(3H)-ylidene)methyl]-1-methyl-1H-indol-4-yl}phenyl)carbamate]",1150,2390,38.5
"CNC(=O)c1ccc(-c2cccc3c2c(/C=C2\Oc4cc(O)cc(O)c4C2=O)cn3C)cc1 [Example 392, 4-{3-[(Z)-(4,6-dihydroxy-3-oxo-1-benzofuran-2(3H)-ylidene)methyl]-1-methyl-1H-indol-4-yl}-N-methylbenzamide]",453,> 7180,17
"CNC(=O)Nc1ccc(-c2cccc3c2c(/C=C2\Oc4cc(O)cc(O)c4C2=O)cn3C)cc1 [Example 393, 1-(4-{3-[(Z)-(4,6-Dihydroxy-3-oxo-1-benzofuran-2(3H)-ylidene)methyl]-1-methyl-1H-indol-4-yl}phenyl)-3-methylurea]",608,2520,23.5
"CN(C)C(=O)Nc1ccc(-c2cccc3c2c(/C=C2\Oc4cc(O)cc(O)c4C2=O)cn3C)cc1 [Example 394, 3-(4-{3-[(Z)-(4,6-dihydroxy-3-oxo-1-benzofuran-2(3H)-ylidene)methyl]-1-methyl-1H-indol-4-yl}phenyl)-1,1-dimethylurea]",460,4120,69
"CC(C)NC(=O)c1ccc(-c2cccc3c2c(/C=C2\Oc4cc(O)cc(O)c4C2=O)cn3C)cc1 [Example 395, 4-{3-[(Z)-(4,6-dihydroxy-3-oxo-1-benzofuran-2(3H)-ylidene)methyl]-1-methyl-1H-indol-4-yl}-N-isopropylbenzamide]",582,3890,95
"Cn1cc(/C=C2\Oc3cc(O)cc(O)c3C2=O)c2c(-c3ccc(C(=O)N4CCCC4)cc3)cccc21 [Example 396, (2Z)-4,6-Dihydroxy-2-({1-methyl-4-[4-(pyrrolidin-1-ylcarbonyl)phenyl]-1H-indol-3-yl}methylene)-1-benzofuran-3(2H)-one]",547,448,30
"Cn1cc(/C=C2\Oc3cc(O)cc(O)c3C2=O)c2c(-c3ccc(C#N)nc3)cccc21 [Example 397, 5-{3-[(Z)-(4,6-Dihydroxy-3-oxo-1-benzofuran-2(3H)-ylidene)methyl]-1-methyl-1H-indol-4-yl}pyridine-2-carbonitrile]",1840,8530,20
"CN(C)c1cccc(-c2cccc3c2c(/C=C2\Oc4cc(O)cc(O)c4C2=O)cn3C)c1 [Example 398, (2Z)-2-({4-[3-(Dimethylamino)phenyl]-1-methyl-1H-indol-3-yl}methylene)-4,6-dihydroxy-1-benzofuran-3(2H)-one]",2760,5260,111
"Cn1cc(/C=C2\Oc3cc(O)cc(O)c3C2=O)c2c(-c3ccc(C(=O)NCc4ccco4)cc3)cccc21 [Example 399, 4-{3-[(Z)-(4,6-dihydroxy-3-oxo-1-benzofuran-2(3H)-ylidene)methyl]-1-methyl-1H-indol-4-yl}-N-(2-furylmethyl)benzamide]",805,> 10000,69.5
"Cn1cc(/C=C2\Oc3cccc(O)c3C2=O)c2c(-c3ccccc3)cccc21 [Example 400, (2Z)-4-Hydroxy-2-[(1-methyl-4-phenyl-1H-indol-3-yl)methylene]-1-benzofuran-3(2H)-one]",> 10000,> 10000,> 19500
"Cn1cc(/C=C2\Oc3cc(O)cc(O)c3C2=O)c2c(-c3ccc(NC(=O)NC4CC4)cc3)cccc21 [Example 401, 1-cyclopropyl-3-(4-{3-[(Z)-(4,6-dihydroxy-3-oxo-1-benzofuran-2(3H)-ylidene)methyl]-1-methyl-1H-indol-4-yl}phenyl)urea]",267,2680,61.5
"Cn1cc(/C=C2\Oc3cc(O)cc(O)c3C2=O)c2c(-c3ccc(NCCN4CCOCC4)nc3)cccc21 [Example 402, (2Z)-4,6-Dihydroxy-2-[(1-methyl-4-{6-[(2-morpholin-4-ylethyl)amino]pyridin-3-yl}-1H-indol-3-yl)methylene]-1-benzofuran-3(2H)-one]",3740,5940,355
"Cn1cc(/C=C2\Oc3cc(O)cc(O)c3C2=O)c2c(-c3cnn(CCN4CCOCC4)c3)cccc21 [Example 403, (2Z)-4,6-Dihydroxy-2-({1-methyl-4-[1-(2-morpholin-4-ylethyl)-1H-pyrazol-4-yl]-1H-indol-3-yl}methylene)-1-benzofuran-3(2H)-one]",1640,7710,123
"Cn1cc(/C=C2\Oc3cc(O)cc(O)c3C2=O)c2c(-c3ccc(NC(=O)N4CCOCC4)cc3)cccc21 [Example 404, N-(4-{3-[(Z)-(4,6-dihydroxy-3-oxo-1-benzofuran-2(3H)-ylidene)methyl]-1-methyl-1H-indol-4-yl}phenyl)morpholine-4-carboxamide]",935,1650,61

# Reference: patent US20090311217A1, “3-SUBSTITUTED-1H-INDOLE COMPOUNDS, THEIR USE AS MTOR KINASE AND PI3 KINASE INHIBITORS, AND THEIR SYNTHESES” (priority 2008, published 2009)
